Data set [1] concerns the target T1, Urotensin-2 receptor (Homo sapiens, UniProt Q9UKP6).
T1 sequence (Q9UKP6 whole entry): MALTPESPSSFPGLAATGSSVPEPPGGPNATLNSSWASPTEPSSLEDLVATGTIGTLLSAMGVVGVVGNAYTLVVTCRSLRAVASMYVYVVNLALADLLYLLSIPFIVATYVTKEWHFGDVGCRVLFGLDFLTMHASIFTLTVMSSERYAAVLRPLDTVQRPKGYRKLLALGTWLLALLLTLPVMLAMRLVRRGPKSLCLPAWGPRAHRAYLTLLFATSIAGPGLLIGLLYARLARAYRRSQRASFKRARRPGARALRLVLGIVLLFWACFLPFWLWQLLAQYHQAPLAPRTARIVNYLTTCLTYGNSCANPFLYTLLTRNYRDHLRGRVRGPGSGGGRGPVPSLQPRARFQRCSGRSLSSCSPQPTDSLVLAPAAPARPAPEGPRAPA
The data set can be described thus: Potency against human Urotensin 2 receptor.

Data set [2] in a line: Dissociation constant of the compound. The class given is physicochemical.
Data set [3] is described as follows: Lipophilicity of the compound. The class given is physicochemical. The conditions noted are these: octanol/water.
In data set [4] the target is T2, Urotensin-2 receptor (Rattus norvegicus, UniProt P49684).
T2 sequence (P49684 whole entry): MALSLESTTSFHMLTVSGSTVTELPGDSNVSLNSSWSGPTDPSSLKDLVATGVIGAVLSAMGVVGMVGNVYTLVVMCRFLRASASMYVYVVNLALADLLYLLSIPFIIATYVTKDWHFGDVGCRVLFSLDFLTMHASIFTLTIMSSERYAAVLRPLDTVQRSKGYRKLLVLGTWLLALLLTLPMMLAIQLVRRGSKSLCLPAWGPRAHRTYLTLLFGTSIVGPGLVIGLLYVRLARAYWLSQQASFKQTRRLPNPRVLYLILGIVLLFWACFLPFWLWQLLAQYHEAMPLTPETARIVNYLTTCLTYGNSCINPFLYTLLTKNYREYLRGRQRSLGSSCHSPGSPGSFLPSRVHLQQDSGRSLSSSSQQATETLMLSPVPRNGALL
Nature of the data set: Potency against rat Urotensin 2 receptor.

As to `CN(C)CCC1(c2ccc(Cl)cc2)Cc2ccccc2C(=O)O1` (single isomer, unassigned; (+)), on Urotensin-2 receptor [1], a half-maximal effect (EC50) was put at 0.251 µM.
Turning to `CN(C)CCC1(c2ccc(Cl)cc2)Cc2ccccc2C(=O)O1` (stereo in doubt; 1), the pKa – broadly, the pH at which an ionisable group is half protonated – in data set [2] came out at 8.7. For the same molecule, the concentration for a half-maximal effect (EC50) – broadly, the concentration giving half of the maximal effect – is 0.316 µM at Urotensin-2 receptor [1] and 0.2 µM on Urotensin-2 receptor [4]. Further, in data set [3], the log distribution coefficient (logD) (as a rule, the decadic logarithm of the distribution of all forms, ionised or not, between an organic phase and buffer at a given pH) came to 2.1.

Source of the values: ChEMBL document CHEMBL1135608, “Discovery of the first nonpeptide agonist of the GPR14/urotensin-II receptor: 3-(4-chlorophenyl)-3-(2- (dimethylamino)ethyl)isochroman-1-one (AC-7954)” (J Med Chem, 2002).
